Patent US8247211B2, “Glycopeptide antibiotics” (American Cyanamid Company, priority 2001, dated 2012)
Converted amounts (≈) assume the structure as drawn.

Key:
[1] = test system: Enterococcus sp.; experiment: In vitro antibacterial evaluation: minimum inhibitory concentration (MIC), broth dilution method; assay type: cell-based; settings: broth dilution, 5×10^5 CFU/mL, 18 hours at 35° C.
Method in brief: (§1)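 NCCLS M7-A2 broth dilution; Muller-Hinton II […]; 5×10^5 CFU/mL; 64-0.06 μg/mL. MIC = lowest concentration with no growth.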

[2] = test system: Escherichia coli; experiment: as above; assay type: cell-based; settings: 5×10^5 CFU/mL, 18 hours at 35° C.
Method in brief: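 Using Muller-Hinton II […] and an inoculum of 5×10^5 CFU/mL, antibiotic dilutions from 64 down to 0.06 μg/mL were tested following NCCLS M7-A2. The MIC is the lowest concentration inhibiting growth, including in methicillin-, penicillin- or vancomycin-resistant clinical isolates.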

[3] = test system: Staphylococcus sp.; experiment: as above; assay type: cell-based; settings: for MIC Staphylococcus aureus (ATCC 29213): strain ATCC 29213; for MIC Staphylococcus aureus (GC 1131): strain GC 1131; for MIC Staphylococcus aureus (GC 3051): strain GC 3051; for MIC Staphylococcus aureus (GC 3053): strain GC 3053; for MIC Staphylococcus aureus (GC 4541): strain GC 4541; for MIC Staphylococcus aureus (GC 4542): strain GC 4542; for MIC Staphylococcus aureus (GC 4544): strain GC 4544; for MIC Staphylococcus aureus (GC 4545): strain GC 4545
Method in brief: as §1

[4] = test system: Streptococcus sp.; experiment: as above; assay type: cell-based; settings: broth dilution, 5×10^5 CFU/mL, 18 hours at 35° C.
Method in brief: as §1

[5] = test system: Enterococcus faecalis (GC 6189), vancomycin resistant strain; experiment: Acute lethal infection in mice (ED50); assay type: in vivo; settings: female CD-1 mice, intraperitoneal challenge, intravenous dose 30 min. after infection, 7 day survival ratios
Method in brief: (§2)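 IP bacterial challenge, female CD-1 mice; inoculum lethal to untreated controls in 24-48 hr. IV dosing in saline or 5% dextrose 30 min post-infection, 5 mice/dose. ED50 from 7-day survival, 3 tests pooled.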

[6] = test system: Staphylococcus aureus-SMITH (GC 4543); experiment: Acute lethal infection in mice (ED50); assay type: in vivo; settings: female CD-1 mice, intraperitoneal challenge, intravenous dose 30 min. after infection, 7 day survival ratios
Method in brief: as §2

[7] = broth dilution, 18 hours at 35° C.
[8] = strain GC 4543, broth dilution, 18 hours at 35° C.
[9] = strain GC 4546, broth dilution, 18 hours at 35° C.
[10] = strain GC 4547, broth dilution, 18 hours at 35° C.
[11] = strain GC 4548, broth dilution, 18 hours at 35° C.
[12] = strain GC 4549, broth dilution, 18 hours at 35° C.
[13] = strain GC 4551, broth dilution, 18 hours at 35° C.
[14] = strain GC 6257, broth dilution, 18 hours at 35° C.
[15] = broth dilution, 5×10^5 CFU/mL, 18 hours at 35° C.

CC(c1ccccc1)C1NC(=O)CNC(=O)C(CO)NC(=O)C(C(O)C2CNC(=N)N2C2OC(CO)C(O)C(O)C2O)NC(=O)C(C(O)C2CNC(=N)N2)NC(=O)C(Cc2ccc(OC3OC(CO)C(OC4OC5COC(Cc6ccc(F)cc6)OC5C(O)C4O)C(O)C3O)cc2)NC1=O (stereo not drawn) [Example 121, Cyclo[glycyl-β-methylphenylalanyl-O-[4-O-[4,6-O-(4-fluorophenethylidene)hexopyranosyl]-hexopyranosyl]tyrosyl-3-(2-iminoimidazolidin-4-yl)seryl-3-(3-hexopyranosyl-2-iminoimidazolidin-4-yl)serylseryl]]
MIC Enterococccus avium (GC 4558) [1]: 4 µg/mL (≈ 2.83 µM)
MIC Enterococccus faecalis (ATCC 29212) [1]: 2 µg/mL (≈ 1.41 µM)
MIC Enterococccus faecalis (GC 2691) [1]: 4 µg/mL (≈ 2.83 µM)
MIC Enterococccus faecalis (GC 3059) [1]: 2 µg/mL (≈ 1.41 µM)
MIC Enterococccus faecalis (GC 4552) [1]: 2 µg/mL (≈ 1.41 µM)
MIC Enterococccus faecalis (GC 4553) [1]: 4 µg/mL (≈ 2.83 µM)
MIC Enterococccus faecalis (GC 4554) [1]: 2 µg/mL (≈ 1.41 µM)
MIC Enterococccus faecalis (GC 6189) [1]: 2 µg/mL (≈ 1.41 µM)
MIC Enterococccus faecium (GC 2243) [1]: 2 µg/mL (≈ 1.41 µM)
MIC Enterococccus faecium (GC 4556) [1]: 2 µg/mL (≈ 1.41 µM)
MIC Enterococccus faecium (GC 4557) [1]: 2 µg/mL (≈ 1.41 µM)
MIC Enterococcus faecalis (GC 2242) [1]: 2 µg/mL (≈ 1.41 µM)
MIC Escherichia coli (ATCC 25922) [2]: 32 µg/mL (≈ 22.6 µM)
MIC Escherichia coli (GC 4559) [2]: 32 µg/mL (≈ 22.6 µM)
MIC Escherichia coli (GC 4560) [2]: 1 µg/mL (≈ 0.707 µM)
MIC Staphylococcus aureus (ATCC 29213) [3]: 1 µg/mL (≈ 0.707 µM)
MIC Staphylococcus aureus (ATCC 29213) [3, 7]: 1 µg/mL (≈ 0.707 µM)
MIC Staphylococcus aureus (GC 1131) [3]: 2 µg/mL (≈ 1.41 µM)
MIC Staphylococcus aureus (GC 1131) [3, 7]: 2 µg/mL (≈ 1.41 µM)
MIC Staphylococcus aureus (GC 3051) [3]: 1 µg/mL (≈ 0.707 µM)
MIC Staphylococcus aureus (GC 3051) [3, 7]: 1 µg/mL (≈ 0.707 µM)
MIC Staphylococcus aureus (GC 3053) [3]: 1 µg/mL (≈ 0.707 µM)
MIC Staphylococcus aureus (GC 3053) [3, 7]: 1 µg/mL (≈ 0.707 µM)
MIC Staphylococcus aureus (GC 4541) [3]: 1 µg/mL (≈ 0.707 µM)
MIC Staphylococcus aureus (GC 4541) [3, 7]: 1 µg/mL (≈ 0.707 µM)
MIC Staphylococcus aureus (GC 4542) [3]: 1 µg/mL (≈ 0.707 µM)
MIC Staphylococcus aureus (GC 4542) [3, 7]: 1 µg/mL (≈ 0.707 µM)
MIC Staphylococcus aureus-SMITH (GC 4543) ([3]; strain GC 4543, 18 hours at 35° C.): 1 µg/mL (≈ 0.707 µM)
MIC Staphylococcus aureus-SMITH (GC 4543) [3, 8]: 1 µg/mL (≈ 0.707 µM)
MIC Staphylococcus aureus (GC 4544) [3]: 2 µg/mL (≈ 1.41 µM)
MIC Staphylococcus aureus (GC 4544) [3, 7]: 2 µg/mL (≈ 1.41 µM)
MIC Staphylococcus aureus (GC 4545) [3]: 2 µg/mL (≈ 1.41 µM)
MIC Staphylococcus aureus (GC 4545) [3, 7]: 2 µg/mL (≈ 1.41 µM)
MIC Staphylococcus haemolyticus (GC 4546) ([3]; strain GC 4546): 1 µg/mL (≈ 0.707 µM)
MIC Staphylococcus haemolyticus (GC 4546) [3, 9]: 1 µg/mL (≈ 0.707 µM)
MIC Coagulase Negative Staphylococcus (GC 4547) ([3]; strain GC 4547): 1 µg/mL (≈ 0.707 µM)
MIC Coagulase Negative Staphylococcus (GC 4547) [3, 10]: 1 µg/mL (≈ 0.707 µM)
MIC Coagulase Negative Staphylococcus (GC 4548) ([3]; strain GC 4548): 0.5 µg/mL (≈ 0.353 µM)
MIC Coagulase Negative Staphylococcus (GC 4548) [3, 11]: 0.5 µg/mL (≈ 0.353 µM)
MIC Coagulase Negative Staphylococcus (GC 4549) ([3]; strain GC 4549): 0.5 µg/mL (≈ 0.353 µM)
MIC Coagulase Negative Staphylococcus (GC 4549) [3, 12]: 0.5 µg/mL (≈ 0.353 µM)
MIC Coagulase Negative Staphylococcus (GC 4551) ([3]; strain GC 4551): 2 µg/mL (≈ 1.41 µM)
MIC Coagulase Negative Staphylococcus (GC 4551) [3, 13]: 2 µg/mL (≈ 1.41 µM)
MIC Coagulase Negative Staphylococcus (GC 6257) ([3]; strain GC 6257): 1 µg/mL (≈ 0.707 µM)
MIC Coagulase Negative Staphylococcus (GC 6257) [3, 14]: 1 µg/mL (≈ 0.707 µM)
MIC Streptococcus agalactiae (GC 4564) [4]: 0.25 µg/mL (≈ 0.177 µM)
MIC Streptococcus pneumoniae (GC 1894) [4]: <0.06 µg/mL
MIC Streptococcus pneumoniae (GC 4565) [4]: <0.06 µg/mL
MIC Streptococcus pneumonine (ATCC 6301) [4]: <0.06 µg/mL
MIC Streptococcus pyogenes (GC 4563) [4]: 0.25 µg/mL (≈ 0.177 µM)
median effective dose (ED50), Enterococcus faecalis (GC 6189) [5]: 0.5 mg/kg
median effective dose (ED50), Staphylococcus aureus-SMITH (GC 4543) [6]: 0.32 mg/kg

Cc1cccc(C2OCC3OC(OC4C(CO)OC(Oc5ccc(CC6NC(=O)C(C(C)c7ccccc7)NC(=O)CNC(=O)C(CO)NC(=O)C(C(O)C7CNC(=N)N7C7OC(CO)C(O)C(O)C7O)NC(=O)C(C(O)C7CNC(=N)N7)NC6=O)cc5)C(O)C4O)C(O)C(O)C3O2)c1 (stereo not drawn) [Example 135, Cyclo[glycyl-β-methylphenylalanyl-O-[4-O-[4,6-O-(3-methylbenzylidene)hexopyranosyl]-hexopyranosyl]tyrosyl-3-(2-iminoimidazolidin-4-yl)seryl-3-(3-hexopyranosyl-2-iminoimidazolidin-4-yl)serylseryl]]
MIC Enterococccus avium (GC 4558) [1]: 2 µg/mL (≈ 1.43 µM)
MIC Enterococccus faecalis (ATCC 29212) [1]: 2 µg/mL (≈ 1.43 µM)
MIC Enterococccus faecalis (GC 2691) [1]: 2 µg/mL (≈ 1.43 µM)
MIC Enterococccus faecalis (GC 3059) [1]: 2 µg/mL (≈ 1.43 µM)
MIC Enterococccus faecalis (GC 4552) [1]: 2 µg/mL (≈ 1.43 µM)
MIC Enterococccus faecalis (GC 4553) [1]: 2 µg/mL (≈ 1.43 µM)
MIC Enterococccus faecalis (GC 4554) [1]: 2 µg/mL (≈ 1.43 µM)
MIC Enterococccus faecalis (GC 6189) [1]: 2 µg/mL (≈ 1.43 µM)
MIC Enterococccus faecium (GC 2243) [1]: 2 µg/mL (≈ 1.43 µM)
MIC Enterococccus faecium (GC 4556) [1]: 2 µg/mL (≈ 1.43 µM)
MIC Enterococccus faecium (GC 4557) [1]: 2 µg/mL (≈ 1.43 µM)
MIC Enterococcus faecalis (GC 2242) [1]: 2 µg/mL (≈ 1.43 µM)
MIC Escherichia coli (ATCC 25922) [2]: 32 µg/mL (≈ 22.9 µM)
MIC Escherichia coli (GC 4559) [2]: 32 µg/mL (≈ 22.9 µM)
MIC Escherichia coli (GC 4560) [2]: 0.5 µg/mL (≈ 0.358 µM)
MIC Coagulase Negative Staphylococcus (GC 4547) [3, 15]: 1 µg/mL (≈ 0.716 µM)
MIC Coagulase Negative Staphylococcus (GC 4548) [3, 15]: 0.5 µg/mL (≈ 0.358 µM)
MIC Coagulase Negative Staphylococcus (GC 4549) [3, 15]: 0.5 µg/mL (≈ 0.358 µM)
MIC Coagulase Negative Staphylococcus (GC 4551) [3, 15]: 1 µg/mL (≈ 0.716 µM)
MIC Coagulase Negative Staphylococcus (GC 6257) [3, 15]: 0.5 µg/mL (≈ 0.358 µM)
MIC Staphylococcus aureus-SMITH (GC 4543) [3, 15]: 1 µg/mL (≈ 0.716 µM)
MIC Staphylococcus haemolyticus (GC 4546) [3, 15]: 0.5 µg/mL (≈ 0.358 µM)
MIC Staphylococcus aureus (ATCC 29213) [3]: 1 µg/mL (≈ 0.716 µM)
MIC Staphylococcus aureus (ATCC 29213) [3, 7]: 1 µg/mL (≈ 0.716 µM)
MIC Staphylococcus aureus (GC 1131) [3]: 1 µg/mL (≈ 0.716 µM)
MIC Staphylococcus aureus (GC 1131) [3, 7]: 1 µg/mL (≈ 0.716 µM)
MIC Staphylococcus aureus (GC 3051) [3]: 1 µg/mL (≈ 0.716 µM)
MIC Staphylococcus aureus (GC 3051) [3, 7]: 1 µg/mL (≈ 0.716 µM)
MIC Staphylococcus aureus (GC 3053) [3]: 1 µg/mL (≈ 0.716 µM)
MIC Staphylococcus aureus (GC 3053) [3, 7]: 1 µg/mL (≈ 0.716 µM)
MIC Staphylococcus aureus (GC 4541) [3]: 1 µg/mL (≈ 0.716 µM)
MIC Staphylococcus aureus (GC 4541) [3, 7]: 1 µg/mL (≈ 0.716 µM)
MIC Staphylococcus aureus (GC 4542) [3]: 1 µg/mL (≈ 0.716 µM)
MIC Staphylococcus aureus (GC 4542) [3, 7]: 1 µg/mL (≈ 0.716 µM)
MIC Staphylococcus aureus-SMITH (GC 4543) [3, 8]: 1 µg/mL (≈ 0.716 µM)
MIC Staphylococcus aureus (GC 4544) [3]: 2 µg/mL (≈ 1.43 µM)
MIC Staphylococcus aureus (GC 4544) [3, 7]: 2 µg/mL (≈ 1.43 µM)
MIC Staphylococcus aureus (GC 4545) [3]: 1 µg/mL (≈ 0.716 µM)
MIC Staphylococcus aureus (GC 4545) [3, 7]: 1 µg/mL (≈ 0.716 µM)
MIC Staphylococcus haemolyticus (GC 4546) [3, 9]: 0.5 µg/mL (≈ 0.358 µM)
MIC Coagulase Negative Staphylococcus (GC 4547) [3, 10]: 1 µg/mL (≈ 0.716 µM)
MIC Coagulase Negative Staphylococcus (GC 4548) [3, 11]: 0.5 µg/mL (≈ 0.358 µM)
MIC Coagulase Negative Staphylococcus (GC 4549) [3, 12]: 0.5 µg/mL (≈ 0.358 µM)
MIC Coagulase Negative Staphylococcus (GC 4551) [3, 13]: 1 µg/mL (≈ 0.716 µM)
MIC Coagulase Negative Staphylococcus (GC 6257) [3, 14]: 0.5 µg/mL (≈ 0.358 µM)
MIC Streptococcus agalactiae (GC 4564) [4]: 0.25 µg/mL (≈ 0.179 µM)
MIC Streptococcus pneumoniae (GC 1894) [4]: <0.06 µg/mL
MIC Streptococcus pneumoniae (GC 4565) [4]: <0.06 µg/mL
MIC Streptococcus pneumonine (ATCC 6301) [4]: <0.06 µg/mL
MIC Streptococcus pyogenes (GC 4563) [4]: 0.25 µg/mL (≈ 0.179 µM)
median effective dose (ED50), Enterococcus faecalis (GC 6189) [5]: 0.26 mg/kg
median effective dose (ED50), Staphylococcus aureus-SMITH (GC 4543) [6]: 0.07 mg/kg
